Test results: PubChem BioAssay AID328 (DTP/NCI, 2004)
Values joined by “and” are separate entries in the source; they are usually repeats but may differ in a detail not shown here. Identical values can stand only once. Toxic doses and inconclusive results are not listed.

Tested on: BDF1 mice, P388 leukemia ip, median survival T/C
Test: NCI In Vivo Anticancer Drug Screen. Data for tumor model P388 Leukemia (intraperitoneal) in B6D2F1 (BDF1) mice
Details: endpoint: median survival time, higher = longer survival
Outline: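 Vehicle-dosed animals serve as the reference; survival of compound-dosed, tumour-implanted mice is divided by it.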

[1] = dose: 50.0 mg/kg/injection, schedule: Q01DX009 (ip), vehicle: saline with Tween-80
[2] = dose: 100.0 mg/kg/injection, schedule: Q01DX009 (ip), vehicle: saline with Tween-80

With `CCCCCCCCC(=O)c1c(OC)oc(C=O)cc1=O` the T/C (dose: 2.34 mg/kg/injection, schedule: Q01DX009 (ip), vehicle: Klucel (hydroxypropylcellulose) (HPC)) was 96 % of control, the T/C (dose: 4.69 mg/kg/injection, schedule: Q01DX009 (ip), vehicle: Klucel (hydroxypropylcellulose) (HPC)) was 112 % of control and 118 % of control and the T/C (dose: 9.38 mg/kg/injection, schedule: Q01DX009 (ip), vehicle: Klucel (hydroxypropylcellulose) (HPC)) was 104 % of control and 108 % of control. For the same molecule, the T/C (dose: 18.7 mg/kg/injection, schedule: Q01DX009 (ip), vehicle: Klucel (hydroxypropylcellulose) (HPC)) was 105 % of control, the T/C (dose: 18.75 mg/kg/injection, schedule: Q01DX009 (ip), vehicle: Klucel (hydroxypropylcellulose) (HPC)) was 96 % of control and the T/C (dose: 37.5 mg/kg/injection, schedule: Q01DX009 (ip), vehicle: Klucel (hydroxypropylcellulose) (HPC)) was 93 % of control and 114 % of control and 121 % of control.

With `CC1(C)N=C(N)N=C(N)N1c1ccc(CNC(=O)Nc2ccc(S(=O)(=O)F)cc2)c(Cl)c1` the T/C (dose: 16.5 mg/kg/injection, schedule: Q01DX009 (ip), vehicle: saline with Tween-80) was 176 % of control, the T/C (dose: 25.0 mg/kg/injection, schedule: Q01DX009 (ip), vehicle: saline with Tween-80) was 188 % of control and the T/C (dose: 37.5 mg/kg/injection, schedule: Q01DX009 (ip), vehicle: saline with Tween-80) was 185 % of control. For the same molecule, the T/C (dose: 88.0 mg/kg/injection, schedule: Q04DX003 (ip), vehicle: saline with Tween-80) was 186 % of control and the T/C (dose: 132.0 mg/kg/injection, schedule: Q04DX003 (ip), vehicle: saline with Tween-80) was 157 % of control.

In the case of `CC1(C)CCC23CCC4(C)C(CCC5C6(C)CCC(O)C(C)(C)C6CCC54C)C2C1OC3=O` (stereo unspecified), the T/C (dose: 10.0 mg/kg/injection, schedule: Q01DX009 (ip), vehicle: Klucel (hydroxypropylcellulose) (HPC)) is reported as 105 % of control, the T/C (dose: 20.0 mg/kg/injection, schedule: Q01DX009 (ip), vehicle: Klucel (hydroxypropylcellulose) (HPC)) is reported as 119 % of control and the T/C (dose: 40.0 mg/kg/injection, schedule: Q01DX009 (ip), vehicle: Klucel (hydroxypropylcellulose) (HPC)) is reported as 105 % of control.

In the case of `CC(N)C(=O)O` (stereo unspecified), the T/C (dose: 100.0 mg/kg/injection, schedule: Q01DX009 (ip), vehicle: saline) is reported as 91 % of control, the T/C (dose: 100.0 mg/kg/injection, schedule: Q04DX003 (ip), vehicle: saline) is reported as 88 % of control and the T/C (dose: 200.0 mg/kg/injection, schedule: Q01DX009 (ip), vehicle: saline) is reported as 108 % of control. The T/C (dose: 200.0 mg/kg/injection, schedule: Q04DX003 (ip), vehicle: saline) was 100 % of control and the T/C (dose: 400.0 mg/kg/injection, schedule: Q01DX009 (ip), vehicle: saline) was 100 % of control.

For `Cc1cc(N(C)C)cc(C)c1N=Nc1cc[n+]([O-])cc1`, the T/C [1] was 104 % of control and the T/C [2] was 124 % of control.

In the case of `CO[C@H](C(=O)[C@@H](O)[C@@H](C)O)[C@@H]1Cc2cc3cc(OC4CC(OC5CC(O)C(O)C(C)O5)C(O)C(C)O4)c(C)c(O)c3c(O)c2C(=O)[C@H]1OC1CC(OC2CC(OC3CC(C)(O)C(O)C(C)O3)C(O)C(C)O2)C(O)C(C)O1` (stereo partly specified), the T/C (dose: 0.05 mg/kg/injection, schedule: Q01DX009 (ip), vehicle: water) is reported as 120 % of control and 110 % of control, the T/C (dose: 0.06 mg/kg/injection, schedule: Q01DX001 (ip), vehicle: water) is reported as 100 % of control and the T/C (dose: 0.1 mg/kg/injection, schedule: Q01DX015 (ip), vehicle: water) is reported as 100 % of control. For the same molecule, the T/C (dose: 0.12 mg/kg/injection, schedule: Q01DX009 (ip), vehicle: clinical formulation) was 114 % of control, the T/C (dose: 0.12 mg/kg/injection, schedule: Q#A X005 (ip), vehicle: saline) was 118 % of control and the T/C (dose: 0.13 mg/kg/injection, schedule: Q01DX001 (ip), vehicle: water) was 100 % of control. For the same molecule, the T/C (dose: 0.13 mg/kg/injection, schedule: Q01DX009 (ip), vehicle: saline) was 122 % of control, the T/C (dose: 0.19 mg/kg/injection, schedule: Q01DX010 (ip), vehicle: saline) was 110 % of control and the T/C (dose: 0.2 mg/kg/injection, schedule: Q01DX009 (ip), vehicle: water) was 150 % of control. The T/C (dose: 0.25 mg/kg/injection, schedule: Q01DX001 (im), vehicle: water) was 100 % of control, the T/C (dose: 0.25 mg/kg/injection, schedule: Q01DX001 (ip), vehicle: water) was 104 % of control and the T/C (dose: 0.25 mg/kg/injection, schedule: Q01DX005 (ip), vehicle: saline) was 100 % of control. The T/C (dose: 0.25 mg/kg/injection, schedule: Q01DX009 (ip), vehicle: clinical formulation) was 121 % of control, the T/C (dose: 0.25 mg/kg/injection, schedule: Q01DX010 (oral), vehicle: saline) was 100 % of control and the T/C (dose: 0.25 mg/kg/injection, schedule: Q01DX015 (ip), vehicle: water) was 115 % of control. For the same molecule, the T/C (dose: 0.35 mg/kg/injection, schedule: Q01DX009 (ip), vehicle: water) was 150 % of control, the T/C (dose: 0.5 mg/kg/injection, schedule: Q01DX001 (im), vehicle: water) was 95 % of control and the T/C (dose: 0.5 mg/kg/injection, schedule: Q01DX001 (ip), vehicle: saline) was 100 % of control. The T/C (dose: 0.5 mg/kg/injection, schedule: Q01DX001 (ip), vehicle: water) was 110 % of control, the T/C (dose: 0.5 mg/kg/injection, schedule: Q01DX005 (ip), vehicle: saline) was 100 % of control and the T/C (dose: 0.5 mg/kg/injection, schedule: Q01DX009 (ip), vehicle: water) was 150 % of control. The T/C (dose: 0.5 mg/kg/injection, schedule: Q01DX010 (oral), vehicle: saline) was 100 % of control, the T/C (dose: 0.5 mg/kg/injection, schedule: Q02DX005 (ip), vehicle: water) was 90 % of control and the T/C (dose: 0.5 mg/kg/injection, schedule: Q04DX003 (ip), vehicle: saline) was 100 % of control. For the same molecule, the T/C (dose: 0.54 mg/kg/injection, schedule: Q01DX005 (ip), vehicle: water) was 175 % of control, the T/C (dose: 0.65 mg/kg/injection, schedule: Q01DX009 (ip), vehicle: water) was 95 % of control and the T/C (dose: 0.65 mg/kg/injection, schedule: Q04DX003 (ip), vehicle: water) was 115 % of control. For the same molecule, the T/C (dose: 0.75 mg/kg/injection, schedule: Q01DX010 (ip), vehicle: water) was 118 % of control, the T/C (dose: 1.0 mg/kg/injection, schedule: Q01DX001 (im), vehicle: water) was 108 % of control and the T/C (dose: 1.0 mg/kg/injection, schedule: Q01DX001 (ip), vehicle: saline) was 100 % of control and 109 % of control. The T/C (dose: 1.0 mg/kg/injection, schedule: Q01DX009 (ip), vehicle: clinical formulation) was 191 % of control, the T/C (dose: 1.0 mg/kg/injection, schedule: Q01DX009 (ip), vehicle: saline) was 94 % of control and 95 % of control and the T/C (dose: 1.0 mg/kg/injection, schedule: Q01DX010 (oral), vehicle: saline) was 100 % of control. The T/C (dose: 1.0 mg/kg/injection, schedule: Q04DX003 (ip), vehicle: saline) was 91 % of control and 118 % of control, the T/C (dose: 1.08 mg/kg/injection, schedule: Q04DX003 (ip), vehicle: water) was 113 % of control and the T/C (dose: 1.5 mg/kg/injection, schedule: Q01DX010 (ip), vehicle: saline) was 180 % of control. For the same molecule, the T/C (dose: 1.5 mg/kg/injection, schedule: Q01DX010 (oral), vehicle: water) was 91 % of control, the T/C (dose: 1.8 mg/kg/injection, schedule: Q04DX003 (ip), vehicle: water) was 103 % of control and the T/C (dose: 2.0 mg/kg/injection, schedule: Q01DX001 (ip), vehicle: saline) was 118 % of control. The T/C (dose: 2.0 mg/kg/injection, schedule: Q01DX009 (ip), vehicle: saline) was 31 % of control, the T/C (dose: 2.0 mg/kg/injection, schedule: Q01DX010 (oral), vehicle: saline) was 100 % of control and the T/C (dose: 2.0 mg/kg/injection, schedule: Q01DX010 (oral), vehicle: water) was 91 % of control. The T/C (dose: 2.5 mg/kg/injection, schedule: Q01DX010 (oral), vehicle: water) was 91 % of control, the T/C (dose: 50.0 mg/kg/injection, schedule: Q01DX010 (ip), vehicle: water) was 100 % of control and the T/C (dose: 7.5 micrograms/kg/injection, schedule: Q03HX008 (ip), vehicle: saline) was 100 % of control. The T/C (dose: 7.5 micrograms/kg/injection, schedule: Q04DX024 (ip), vehicle: saline) was 95 % of control, the T/C (dose: 63.0 micrograms/kg/injection, schedule: Q01DX010 (ip), vehicle: saline) was 109 % of control and the T/C (dose: 94.0 micrograms/kg/injection, schedule: Q01DX010 (ip), vehicle: saline) was 100 % of control. For the same molecule, the T/C (dose: 125.0 micrograms/kg/injection, schedule: Q01DX010 (ip), vehicle: saline) was 118 % of control, the T/C (dose: 188.0 micrograms/kg/injection, schedule: Q01DX010 (ip), vehicle: saline) was 113 % of control and the T/C (dose: 375.0 micrograms/kg/injection, schedule: Q01DX010 (ip), vehicle: saline) was 113 % of control.

In the case of `CCN1CC2(CO)CCC(OC)C34C5CC6C(OC)CC(O)(C5C6OC)C(O)(C(OC)C23)C14` (stereo unspecified), the T/C [1] is reported as 100 % of control, the T/C [2] is reported as 103 % of control and the T/C (dose: 200.0 mg/kg/injection, schedule: Q01DX009 (ip), vehicle: saline with Tween-80) is reported as 100 % of control.

With `CC[C@@]1(O)C[C@H](OC2CC(N(C)C)C(O)C(C)O2)c2c(cc3c(c2O)C(=O)c2c(O)ccc(O)c2C3=O)[C@H]1C(=O)OC` (stereo partly specified) the T/C (dose: 20.0 mg/kg/injection, schedule: Q04DX003 (ip), vehicle: other) was 157 % of control.
